The structures appear in SMILES notation.

Our source for the melting point values is patent publication US7148236B2, “Modulators of acetylcholine receptors” (Merck & Co., Inc., priority 2002, dated 2006).

For `CN1[C@@H]2CC[C@H]1C[C@H](Sc1ccc3[nH]c(=O)[nH]c(=O)c3c1)C2`, the melting point (usually the temperature, or range, at which the solid turns liquid) was more than 260 °C.
With `CN1[C@@H]2CC[C@H]1C[C@H](Sc1cc3c(cc1Cl)[nH]c(=O)n3C)C2` the figure was 206.4 to 207.2 °C; with `CCCn1c(=S)[nH]c2ccc(S[C@@H]3C[C@H]4CC[C@@H](C3)N4C)c(Cl)c21`, 131.4 to 133.9 °C; with `CN1[C@@H]2CC[C@H]1C[C@H](Sc1ccc3[nH]c(=O)[nH]c3c1)C2`, 178.5 to 181.6 °C.
To `CC(C)n1c(=S)[nH]c2ccc(S[C@@H]3C[C@H]4CC[C@@H](C3)N4C)c(Cl)c21` belongs 228.9 to 230.9 °C; to `CN1[C@@H]2CC[C@H]1C[C@H](Sc1ccc3[nH]c(=O)n(C)c3c1Cl)C2.Cl`, more than 260 °C.
